Patent publication US6623933B1 (priority 1999, dated 2003)

What was measured:
Type in all cases: cell-based
GluR1 AMPA receptor = target: T1, GluR1 AMPA receptor (Rattus norvegicus, UniProt P19490); test: Kainate-induced currents, Xenopus oocytes injected with GluR1 cRNA; conditions: GluR1, steroid 100 μM; for Percentage change in kainate response: 100 μM kainate, −100 mV
T1 construct: expressed in transfected cells; host or cells: Xenopus oocytes injected with GluR1 cRNA
Excerpt: (§1) Plasmids were obtained from the following individuals: Dr. Suzanne Zukin (Albert Einstein College of Medicine, Bronx, N.Y.), NR1100; Dr. Shigetada Nakanishi (Kyoto University Faculty of Medicine, Kyoto, Japan), NR2A; Dr. Stephen Heinemann (Salk Institute, San Diego, Calif.), GluR1 (flop), GluR3 (flop), and GluR6. Plasmids were linearized with BamH1 (NR1100), XhoI (NR2A, GluR1, GluR3) or XbaI (GluR6) prior to in vitro transcription with T3 (GluR1, GluR3, GluR6) or T7 (NR1100, NR2A) RNA polymerase using the Message Machine kit (Ambion, Austin, Tex.). […] RNA solutions (50-70 nl) were injected into oocytes for delivery of NR1100 (5 ng), NR1100:NR2A (1:10 ng), GluR1 (5 ng). GluR3 (5 ng), or GluR6 (20 ng). Oocytes were incubated in ND96 at 18-20° C. for 3-7 days prior to electrophysiological recording.
(§2) Steroid solutions were prepared as 70-100 mM frozen stocks in dimethyl sulfoxide (DMSO). The final DMSO concentration of all recording solutions was between 0.1% to 0.5% and was constant within an experiment.
(§3) Perfusion control and data acquisition were carried out using an automated oocyte electrophysiology workstation that was developed for the rapid collection of concentration-response data and real-time waveform analysis (Yaghoubi et al., Soc. Neurosci. Abstr. 20: 1109 (1995)). This system is implemented on a Macintosh IIci computer (Apple Computer, Cupertino, Calif.) equipped with MacA-DIOS II data acquisition and control hardware (GW Instruments, Somerville, Mass.). Drug application is controlled by the computer through a series of valves, using custom-written software based on the SuperScope II development environment, improving the efficiency and reproducibility of data collection. Experiments were carried out using an Axoclamp-2A voltage clamp amplifier (Axon Instruments, Foster City, Calif.) in two-electrode voltage clamp mode. Intracellular microelectrodes (1-3 MΩ) were filled with 3 M KCl. […] Membrane potential was clamped at −60 to −70 mV and stepped to −100 mV at the start of data acquisition unless otherwise stated. […] Current and voltage recordings were digitized at 100 Hz for analysis. GluR6 injected oocytes were treated for 10 min with 10 μg/ml concanavalin A to prevent fast desensitization.
(§4) Results are expressed as mean±S.E.M. Statistical comparisons were made using Student's t-test.

GluR3 AMPA receptor = target: T2, GluR3 AMPA receptor (Rattus norvegicus, UniProt P19492); test: Kainate-induced currents, Xenopus oocytes injected with GluR3 cRNA; conditions: GluR3, steroid 100 μM; for Percentage change in kainate response: 100 μM kainate, −100 mV
T2 construct: expressed in transfected cells; host or cells: Xenopus oocytes injected with GluR3 cRNA
Excerpt: as §1, §2, §3, §4

GluR6 kainate receptor = target: T3, GluR6 kainate receptor (Rattus norvegicus, UniProt P42260); test: Kainate-induced currents, Xenopus oocytes injected with GluR6 cRNA; conditions: GluR6, steroid 100 μM; for Percentage change in kainate response: 10 μM kainate, −100 mV
T3 construct: expressed in transfected cells; host or cells: Xenopus oocytes injected with GluR6 cRNA (concanavalin A treated)
Excerpt: as §1, §2, §3, §4

[1] = target: T4, NR1100+NR2A NMDA receptor (Rattus norvegicus, UniProt P35439+Q00959); test: NMDA-induced currents, Xenopus oocytes, Example 1; conditions: NR1100 + NR2A; steroid 100 μM; 100 μM NMDA; −100 mV
T4 construct: expressed in transfected cells; host or cells: Xenopus oocytes co-injected with NR1100 and NR2A cRNA
Excerpt: as §1, §2, §3, §4

[2] = system: primary cultures of rat hippocampal neurons; test: NMDA-induced neuronal death, trypan blue exclusion; conditions: DNQX; 100 μM SR-95531; not shown
Procedure: Principally neuronal cultures were prepared from hippocampal tissue of fetal Sprague-Dawley rats on day 18 of embryonic development, as previously described (Brewer et al., Brain Research 494: 65-74 (1989)). Briefly, hippocampal cells were dissociated by trituration in Ca^2+/Mg^2+-free Hank's basic salt solution (Gibco) supplemented with 4.2 mM bicarbonate, 1 mM sodium pyruvate, 20 mM HEPES, 3 mg/ml bovine serum albumin (BSA). Dissociated cells were then pelleted by centrifugation (500×g, 4 min). […] Cells were then plated onto poly-L-lysine-coated 24-well culture dishes (Nunclon) at a density of 15,000 cell/cm^2 and maintained in a humidified atmosphere containing 5% CO2/95% air at 37° C. After 48 h, nonneuronal cell division was inhibited by a 48 h exposure to 1 μM cytosine arabinoside. Cultures were subsequently maintained in serum-free DMEM plus defined components and were used for experiments 16 to 24 days after plating.
Steroids were dissolved in DMSO (0.5% final concentration), and all treatment media contained 0.5% DMSO. […] Following exposure, cultures were washed 3 times with medium from sister cultures (conditioned medium). After the final wash, steroid or vehicle was reintroduced. Drugs were added to cultures in 25 μl of conditioned medium to yield a final volume of 0.25 ml per well. Except where otherwise noted, final steroid concentration was 100 μM.
The ability of neurons to exclude trypan blue was used to quantitate cell viability (Dawson et al., Proc Natl Acad Sci USA 88: 6368-6371 (1991)). […] Cultures were then fixed with 4% paraformaldehyde in PBS for 30 min, at whichtime the fixative was replaced with PBS. The number of stained and unstained neurons were counted in 4 high-power fields per culture well, using an inverted phase contrast microscope under both bright field and phase contrast settings. Experiments were performed in triplicate, and all assessments were made with the experimenter blind to the treatment of each culture well. Percent cell death is expressed as follows: (number of trypan blue stained neurons)/(total number of neurons)×100%.
All data are expressed as mean±standard error of the mean. Statistical significance was evaluated using 95% confidence limits unless otherwise noted.

T1 sequence (P19490 19-907): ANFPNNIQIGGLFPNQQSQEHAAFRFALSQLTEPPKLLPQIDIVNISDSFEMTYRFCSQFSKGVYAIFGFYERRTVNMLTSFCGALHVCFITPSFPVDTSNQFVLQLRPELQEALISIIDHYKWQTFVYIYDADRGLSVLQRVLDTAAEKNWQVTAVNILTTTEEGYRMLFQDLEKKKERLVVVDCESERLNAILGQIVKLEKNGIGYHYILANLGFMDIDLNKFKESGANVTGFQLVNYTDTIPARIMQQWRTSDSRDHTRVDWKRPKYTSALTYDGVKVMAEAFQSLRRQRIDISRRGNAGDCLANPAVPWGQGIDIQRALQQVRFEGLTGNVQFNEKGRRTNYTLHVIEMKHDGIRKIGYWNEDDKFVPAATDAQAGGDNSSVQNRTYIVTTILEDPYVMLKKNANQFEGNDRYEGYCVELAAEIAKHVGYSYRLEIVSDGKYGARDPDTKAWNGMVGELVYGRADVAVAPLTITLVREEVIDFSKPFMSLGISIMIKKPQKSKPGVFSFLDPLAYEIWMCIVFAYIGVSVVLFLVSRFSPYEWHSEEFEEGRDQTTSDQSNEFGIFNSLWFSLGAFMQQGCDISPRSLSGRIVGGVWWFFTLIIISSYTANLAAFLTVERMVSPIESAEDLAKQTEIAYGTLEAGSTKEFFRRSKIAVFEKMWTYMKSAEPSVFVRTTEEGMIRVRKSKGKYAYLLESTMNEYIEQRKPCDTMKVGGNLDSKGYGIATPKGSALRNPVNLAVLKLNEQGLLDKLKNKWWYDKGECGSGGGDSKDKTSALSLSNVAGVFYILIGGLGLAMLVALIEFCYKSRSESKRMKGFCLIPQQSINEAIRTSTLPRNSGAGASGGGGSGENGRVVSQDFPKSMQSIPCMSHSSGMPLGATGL
T3 sequence (P42260 32-908): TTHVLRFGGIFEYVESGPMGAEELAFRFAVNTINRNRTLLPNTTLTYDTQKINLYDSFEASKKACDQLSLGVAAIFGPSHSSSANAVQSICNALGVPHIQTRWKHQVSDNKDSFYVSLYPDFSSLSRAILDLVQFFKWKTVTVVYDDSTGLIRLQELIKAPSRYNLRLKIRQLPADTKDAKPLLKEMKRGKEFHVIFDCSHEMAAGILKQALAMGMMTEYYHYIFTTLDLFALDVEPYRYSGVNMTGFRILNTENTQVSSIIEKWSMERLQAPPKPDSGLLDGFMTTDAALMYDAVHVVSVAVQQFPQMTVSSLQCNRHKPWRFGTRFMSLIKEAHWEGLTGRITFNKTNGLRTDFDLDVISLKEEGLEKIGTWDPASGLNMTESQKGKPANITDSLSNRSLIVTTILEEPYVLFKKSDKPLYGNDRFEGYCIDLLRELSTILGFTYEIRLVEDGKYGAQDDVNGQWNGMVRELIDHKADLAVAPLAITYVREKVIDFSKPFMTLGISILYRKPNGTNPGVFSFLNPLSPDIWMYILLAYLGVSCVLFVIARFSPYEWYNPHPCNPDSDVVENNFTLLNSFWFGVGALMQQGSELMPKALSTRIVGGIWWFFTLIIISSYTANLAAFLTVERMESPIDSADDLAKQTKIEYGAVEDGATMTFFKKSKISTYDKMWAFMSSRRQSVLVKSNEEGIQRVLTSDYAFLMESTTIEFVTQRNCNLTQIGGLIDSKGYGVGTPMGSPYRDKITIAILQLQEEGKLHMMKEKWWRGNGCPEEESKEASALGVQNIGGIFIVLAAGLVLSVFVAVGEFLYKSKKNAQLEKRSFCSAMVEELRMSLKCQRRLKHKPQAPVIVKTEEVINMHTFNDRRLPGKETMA
T2 sequence (P19492 23-888): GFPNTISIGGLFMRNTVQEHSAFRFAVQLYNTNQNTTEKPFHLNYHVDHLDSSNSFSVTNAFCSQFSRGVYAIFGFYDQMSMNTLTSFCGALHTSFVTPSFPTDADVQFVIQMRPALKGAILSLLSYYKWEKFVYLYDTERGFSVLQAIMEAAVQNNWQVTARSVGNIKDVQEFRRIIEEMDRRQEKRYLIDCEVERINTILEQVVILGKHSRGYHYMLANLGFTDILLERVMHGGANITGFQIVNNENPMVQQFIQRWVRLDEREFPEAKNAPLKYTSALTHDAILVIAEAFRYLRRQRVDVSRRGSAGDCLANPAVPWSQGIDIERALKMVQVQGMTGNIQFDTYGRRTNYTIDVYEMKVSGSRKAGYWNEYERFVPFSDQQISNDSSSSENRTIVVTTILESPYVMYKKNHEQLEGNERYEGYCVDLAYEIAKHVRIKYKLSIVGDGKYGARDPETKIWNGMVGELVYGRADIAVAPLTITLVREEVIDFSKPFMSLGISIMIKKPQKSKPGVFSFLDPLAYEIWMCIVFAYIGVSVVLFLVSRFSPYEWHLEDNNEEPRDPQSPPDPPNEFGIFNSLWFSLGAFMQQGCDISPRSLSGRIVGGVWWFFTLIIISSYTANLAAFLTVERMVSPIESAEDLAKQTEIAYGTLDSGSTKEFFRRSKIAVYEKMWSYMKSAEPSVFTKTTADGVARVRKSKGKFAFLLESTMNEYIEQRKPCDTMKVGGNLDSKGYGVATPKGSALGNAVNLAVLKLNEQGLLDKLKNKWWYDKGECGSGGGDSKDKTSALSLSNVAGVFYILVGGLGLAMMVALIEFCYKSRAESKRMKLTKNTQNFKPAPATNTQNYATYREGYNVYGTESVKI
T4 sequence (Q00959 23-1464, other chains not shown): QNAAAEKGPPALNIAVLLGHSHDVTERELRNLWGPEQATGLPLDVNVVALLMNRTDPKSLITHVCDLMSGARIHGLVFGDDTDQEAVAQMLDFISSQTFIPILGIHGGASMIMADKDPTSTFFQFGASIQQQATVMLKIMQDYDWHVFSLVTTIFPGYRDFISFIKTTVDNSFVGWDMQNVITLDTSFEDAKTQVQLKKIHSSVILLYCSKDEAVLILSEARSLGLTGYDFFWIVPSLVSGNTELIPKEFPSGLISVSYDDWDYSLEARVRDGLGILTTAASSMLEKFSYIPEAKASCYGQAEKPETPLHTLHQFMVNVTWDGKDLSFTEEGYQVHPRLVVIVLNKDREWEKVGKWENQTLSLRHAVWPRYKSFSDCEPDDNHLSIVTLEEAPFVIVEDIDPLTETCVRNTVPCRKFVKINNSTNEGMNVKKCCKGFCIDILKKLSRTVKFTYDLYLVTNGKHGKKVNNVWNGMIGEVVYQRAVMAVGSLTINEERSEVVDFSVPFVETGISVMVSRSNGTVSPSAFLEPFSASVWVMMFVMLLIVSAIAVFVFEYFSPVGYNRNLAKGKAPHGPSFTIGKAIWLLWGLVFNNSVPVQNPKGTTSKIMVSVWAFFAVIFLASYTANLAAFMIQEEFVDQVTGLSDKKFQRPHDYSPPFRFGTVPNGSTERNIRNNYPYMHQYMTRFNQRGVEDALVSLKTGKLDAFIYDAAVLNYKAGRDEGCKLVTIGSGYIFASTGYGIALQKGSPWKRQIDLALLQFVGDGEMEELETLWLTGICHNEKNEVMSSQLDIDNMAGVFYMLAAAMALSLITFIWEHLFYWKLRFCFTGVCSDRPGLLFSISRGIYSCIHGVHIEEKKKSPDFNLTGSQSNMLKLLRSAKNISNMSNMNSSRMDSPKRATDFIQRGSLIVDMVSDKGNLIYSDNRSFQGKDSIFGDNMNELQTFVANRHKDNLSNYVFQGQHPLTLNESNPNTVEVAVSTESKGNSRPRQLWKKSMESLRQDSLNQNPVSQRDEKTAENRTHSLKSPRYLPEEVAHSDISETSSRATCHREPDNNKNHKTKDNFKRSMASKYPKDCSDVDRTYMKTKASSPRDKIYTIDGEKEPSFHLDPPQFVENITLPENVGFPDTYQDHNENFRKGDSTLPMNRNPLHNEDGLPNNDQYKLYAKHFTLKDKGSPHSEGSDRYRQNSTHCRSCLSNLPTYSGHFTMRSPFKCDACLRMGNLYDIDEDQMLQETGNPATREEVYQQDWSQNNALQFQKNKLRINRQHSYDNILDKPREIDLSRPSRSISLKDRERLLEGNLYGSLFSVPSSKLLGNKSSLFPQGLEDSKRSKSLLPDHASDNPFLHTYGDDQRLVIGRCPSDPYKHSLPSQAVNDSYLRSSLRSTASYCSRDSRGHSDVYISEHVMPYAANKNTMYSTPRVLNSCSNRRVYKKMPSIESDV

Molecule | inhibition of the response to kainate (GluR1 AMPA receptor) | Percentage change in kainate response (GluR1 AMPA receptor) | inhibition of the response to kainate (GluR3 AMPA receptor) | Percentage change in kainate response (GluR3 AMPA receptor) | inhibition of the response to kainate (GluR6 kainate receptor) [%] | Percentage change in kainate response (GluR6 kainate receptor) | Percentage change in NMDA response [1] | effect on NMDA-induced neuronal death [2]
C[C@]12CC[C@@H]3c4ccc(OS(=O)(=O)O)cc4CC[C@H]3[C@@H]1CC[C@@H]2O [17β-Estradiol-3-sulfate] | no effect | −2 ± 2(3) % | no effect | −8 ± 4(3) % | 12 | −13 ± 4(4) % | +12 ± 3(4) % | 
O=C1N=c2cc([N+](=O)[O-])c([N+](=O)[O-])cc2=NC1=O [DNQX, 6,7-dinitroquinoxaline-2,3-dione] |  |  |  |  |  |  |  | no effect
Dehydroepiandrosterone sulfate |  | −23 ± 3(3) % |  | −7 ± 1(4) % |  | −17 ± 5(3) % | +8 ± 13(3) % | 
Br.COc1ccc(-c2ccc(=N)n(CCCC(=O)O)n2)cc1 [SR-95531] |  |  |  |  |  |  |  | no effect
